SMILES strings stand for the structures. Calls of active or inactive are those of the source. How the calls were made is not given here.

The source of these data is PubChem BioAssay AID2061108 (Research group of Professor Matthew Todd, School of …, 2025).

Common to all, as to assay: antibacterial and antifungal growth inhibition panel, profiling panel, Idler compounds, first plate, PMBN-permeabilized strains (AID 2061108)
Holding throughout (set-up): haemolysis: dose or concentration left out as unconfirmed

In experiment [1] the test system is A. baumannii ATCC 17978 + PMBN growth inhibition, 100 uM. To be noted: A. baumannii plus PMBN growth inhibition, 100 µM; stronger effect = higher value.
Experiment [2] deals with A. baumannii ATCC 17978 growth inhibition, 100 uM. The conditions noted are these: S. aureus ATCC 9144 growth inhibition; measured here: A. baumannii ATCC 17978; at 100 µM; stronger effect = higher value.
Experiment [3] has as its system C. albicans NCPF 3281 growth inhibition, 100 uM. The conditions noted are these: S. aureus ATCC 9144 growth inhibition; measured here: C. albicans NCPF 3281; at 100 µM; stronger effect = higher value.
Experiment [4] relates to E. coli NCTC 12923 + PMBN growth inhibition, 100 uM. To be noted: S. aureus ATCC 9144 growth inhibition; measured here: E. coli plus PMBN; at 100 µM; stronger effect = higher value.
Experiment [5] has as its system E. coli NCTC 12923 growth inhibition, 100 uM. The conditions noted are these: E. coli NCTC 12923 growth inhibition, 100 µM; stronger effect = higher value.
The subject of experiment [6] is M. abscessus growth inhibition, 10 uM. To be noted: S. aureus ATCC 9144 growth inhibition; measured here: M. abscessus; at 10 µM.
In experiment [7] the test system is M. avium growth inhibition, 10 uM. The conditions noted are these: M. avium growth inhibition, 10 µM.
Experiment [8] deals with S. aureus ATCC 9144 growth inhibition, 100 uM. The conditions noted are these: S. aureus ATCC 9144 growth inhibition; at 100 µM; stronger effect = higher value.
Experiment [9] concerns red blood cell haemolysis. The conditions noted are these: stronger effect = higher value; dose or concentration not given here.

On to `Cc1ccn2c(=O)nc(SCC(=O)OCc3ccccc3)nc2c1`, for which the inhibition was 5.22% in [1]; 0.238% in [2]; -102% in [3]; -29.4% in [4]; -34.5% in experiment [5]; -0.803% in experiment [6]. Besides, the figures for the inhibition in experiment [7] and in experiment [8] were -0.191% and 7% (inactive), respectively. Further, the haemolysis in [9] is -0.0134%.
For `COC(=O)c1ccc(C2CN(c3ccnc(S(=O)(=O)F)c3)C2)nc1`, the inhibition is 22.5% in [1]; 0.357% in experiment [2]; -28.7% in experiment [3]; 11.4% in [4]; 1.62% in experiment [5]; -1.03% in experiment [6]. Further, the values for the inhibition in experiment [7] and in [8] were 0.0988% and 16.7% (inactive), respectively. The haemolysis in [9] was -0.16%.
For the molecule `C=CC(=O)N1CCCc2c(C(=O)O)cccc21`, the inhibition was 18.6% in experiment [1]; -1.2% in experiment [2]; -51.3% in [3]; -5.12% in experiment [4]; -5.27% in [5]; -0.114% in experiment [6]. For the same molecule, the results for the inhibition in experiment [7] and in [8] were 0.285% and 17% (inactive), respectively. For the same molecule, in experiment [9], the haemolysis turned out to be 0.129%.
Turning to `Nc1ncnc2cc(-c3cccc(S(=O)(=O)NC(=O)C(N)CC(=O)O)c3)sc12` (stereo not given), the inhibition was 9.86% in experiment [1]; -7.14% in [2]; -64.6% in experiment [3]; 8.15% in experiment [4]; 0.676% in experiment [5]; -1.16% in experiment [6]. The values for the inhibition in [7] and in experiment [8] were 11.9% and 15.7% (inactive), respectively. Moreover, in experiment [9], the haemolysis was -0.194%.
Take `CCC(C)NS(=O)(=O)CCCOc1ccc(F)cc1` (stereo not given): the inhibition in experiment [1] was 28.8%; in [2], -4.88%; in experiment [3] it was -63.1%; in experiment [4], -9.51%; in experiment [5] it was 0%; in [6], -0.898%. Besides, the inhibition was -0.527% in experiment [7] and 10.3% (inactive) in experiment [8]. In addition, the haemolysis in experiment [9] was -0.19%.
In the case of `CC1=CC(=O)C=C(C)C1=NOS(=O)(=O)c1ccc(Cl)cc1`, the inhibition is -8.84% in [1]; -15.4% in experiment [2]; -1.74% in [3]; -20.5% in experiment [4]; -42.6% in experiment [5]; -0.716% in [6]. Besides, the inhibition was -0.499% in [7] and 98.2% in [8]. For the same molecule, the haemolysis in [9] worked out at 0.0834%.
For `Cc1ccc(C)c(N2CCN(C(=O)C3CCN(c4ncnc5c4sc4ncccc45)CC3)CC2)c1`, the inhibition was 5.07% in [1]; -3.57% in experiment [2]; 24.6% in [3]; 0.988% in [4]; 9.19% in [5]; -1.18% in experiment [6]. The inhibition in experiment [7] was 9.54%; in [8], 6.17% (inactive). Also, in experiment [9], the haemolysis is 0.267%.
Turning to `O=C(Nc1nnc2ccccn12)c1ccc2cccc(Cl)c2n1`, the inhibition in experiment [1] was -14.2%; in [2] it was -14.5%; in [3], 25.9%; in [4], -43.8%; in experiment [5], -51.6%; in [6], -0.577%. The inhibition was -0.879% in [7] and -41.5% (inactive) in [8]. For the same molecule, the haemolysis in experiment [9] was found to be 2.79%.
`CC(C)C(N)C(=O)NS(=O)(=O)c1cccc(-c2cc3ncnc(N)c3s2)c1` (stereo not given): the inhibition was -10.9% in experiment [1]; -15.1% in experiment [2]; -123% in [3]; -17.2% in [4]; -28.5% in experiment [5]; -0.361% in experiment [6]. The inhibition in experiment [7] is 16.2%; in [8], -22.3% (inactive). For the same molecule, the haemolysis in experiment [9] was determined as 0.218%.
With `CC(Nc1ccc2oc(=O)[nH]c2c1)C(=O)Nc1ccccc1C#N` (stereo not given), the inhibition was 14.5% in experiment [1]; -0.833% in experiment [2]; 28% in experiment [3]; -6.79% in [4]; -4.73% in experiment [5]; -1.22% in experiment [6]. Besides, the inhibition is 0.0692% in [7] and 8.83% (inactive) in experiment [8]. Also, the haemolysis in experiment [9] was found to be 0.275%.
Turning to `O=S(=O)(Nc1ccc(Oc2ccccc2)cc1)c1cccc(C(F)(F)F)c1`, the inhibition in experiment [1] was 67.9%; in [2], 59.2%; in experiment [3] it was 25.3%; in experiment [4] it was 90%; in [5], -5.41%; in [6], -0.452%. In addition, the values for the inhibition in experiment [7] and in experiment [8] were 0.528% and 81.9%, respectively. In addition, the haemolysis in [9] turned out to be 1.23%.
Regarding `N#Cc1ccc(NC2Cc3cccc(O)c3C2)cc1Cl` (stereo not given), the inhibition was 101% in [1]; 65.2% in experiment [2]; 100% in experiment [3]; 101% in experiment [4]; 25% in experiment [5]; -0.909% in experiment [6]. For the same molecule, the values for the inhibition in [7] and in experiment [8] were 0.34% and 100%, respectively. The haemolysis in experiment [9] was determined as 0.539%.
For `CCS(=O)(=O)c1ccc(CNc2nc3ccccc3cc2C#N)s1`, the inhibition is 28.4% in experiment [1]; -4.82% in experiment [2]; -73.7% in experiment [3]; -0.61% in [4]; -13.4% in experiment [5]; 0.173% in [6]. For the same molecule, the inhibition in [7] was -0.121%; in [8] it was 22.3% (inactive). For the same molecule, the haemolysis in experiment [9] stood at 0.247%.
`COc1ccc(-c2ccc(CNc3ccnc(S(=O)(=O)F)c3)s2)cc1`: the inhibition was 38% in experiment [1]; 8.21% in experiment [2]; 98.4% in experiment [3]; 14.7% in experiment [4]; 5.81% in experiment [5]; -0.879% in experiment [6]. In addition, the inhibition in [7] is -0.555%; in experiment [8], 24.7%. In addition, the haemolysis in [9] came to 2.61%.
Regarding `Cc1cc(NC(=O)c2ccc(F)c(C(C)(C)C#N)c2)nn1C`, the inhibition in experiment [1] is 22.3%; in [2] it was -0.843%; in experiment [3] it was -51.4%; in experiment [4], -1.71%; in experiment [5] it was -2.97%; in experiment [6], 0.104%. The inhibition in experiment [7] is -0.0495%; in experiment [8] it was 1.75% (inactive). Also, the haemolysis in experiment [9] was found to be 0.0361%.
In the case of `O=C(Cc1ccc(C(F)(F)F)nc1)N1Cc2cccnc2C1`, the inhibition in experiment [1] was 22%; in [2], 0.241%; in experiment [3], -94.2%; in [4], -4.27%; in [5], -5.95%; in experiment [6], -0.0961%. The values for the inhibition in experiment [7] and in experiment [8] were 0.169% and 6.84% (inactive), respectively. The haemolysis in experiment [9] is 4.32%.
As for `O=S(=O)(F)c1ncc(Cl)cc1Br`, the inhibition in [1] is 5.94%; in [2], 0.595%; in experiment [3], -41.4%; in [4], -23.7%; in experiment [5], -27.7%; in experiment [6], -0.925%. The values for the inhibition in experiment [7] and in experiment [8] were 0.219% and -14.2% (inactive), respectively. Further, in [9], the haemolysis came out at 0.564%.
Regarding `CC(C)NC(=O)Nc1cccc(C(=O)NC(C)c2cccc(Br)c2)c1` (stereo not given), the inhibition was 34.3% in [1]; 4.29% in experiment [2]; 26.3% in experiment [3]; 28.6% in [4]; -0.541% in [5]; -1.08% in experiment [6]. Moreover, the inhibition in [7] was -5.32%; in [8], 3.67% (inactive). The haemolysis in experiment [9] was -0.0024%.
Regarding `COc1ccc2c(c1)nc(-c1c[nH]c3cc(N4CCOCC4)ccc13)c1[nH]ccc12`, the inhibition was 95.9% in experiment [1]; 53.1% in experiment [2]; -104% in [3]; 98.5% in experiment [4]; 14.1% in experiment [5]; 0.186% in experiment [6]. Further, the inhibition in experiment [7] was 1.53%; in experiment [8], 101%. In addition, the haemolysis in experiment [9] is 0.675%.
`COc1cc2nc(NCCCN(C)C)nc(N3CC(N(C)C)C3)c2cc1OC`: the inhibition in [1] is 29.9%; in [2], 17.3%; in experiment [3] it was -118%; in experiment [4], 2.07%; in [5], 11.5%; in [6], 1.59%. Also, the figures for the inhibition in [7] and in [8] were 5.58% and 37.5% (inactive), respectively. Also, the haemolysis in experiment [9] came to 0.15%.

The term inhibition denotes the change of the read-out against control, counted positive when it falls.
